Source: paper PMC6403271, “Characterization, mechanism of action and optimization of activity of a novel peptide-peptoid hybrid against bacterial pathogens involved in canine skin infections” (Scientific Reports, 2019)
Entries after “also recorded” stand apart in the source; their conditions may differ. Square brackets hold non-standard residues; d marks the D form. Peptide text beside a SMILES is read from it. N(1-naphthylmethyl)Gly = O=C(O)CNCc1cccc2ccccc12; d1Nal = N[C@H](Cc1cccc2ccccc12)C(=O)O; N(4-MeBn)Gly = Cc1ccc(CNCC(=O)O)cc1; dNle = CCCC[C@@H](N)C(=O)O; NBuGly = CCCCNCC(=O)O

What was measured:
[1] = system: MSSA (ATCC 29213); assay type: cell-based, Staphylococcus aureus; conditions: ATCC 29213, 18 h
Summary of the method: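 Broth microdilution per CLSI M31-A3 on canine clinical isolates plus reference MRSP C22963, MSSA and P. aeruginosa 26314; 5 × 10^5 CFU/mL in MHB II with two-fold dilutions from 1 to 64 µg/ml. MIC = lowest concentration without visible growth after 18 hours at 37 °C; triplicates on two days.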

[2] = system: P. aeruginosa isolates; experiment: MIC, panel of 50 canine P. aeruginosa isolates; assay type: cell-based, Pseudomonas aeruginosa
Method: Activity of B1 was tested on 50P. aeruginosa isolates and 57S. pseudintermedius isolates (including 7 MRSP) that had been isolated in the diagnostic laboratory Sund Vet Diagnostik (University of Copenhagen) from various infections in dogs between 2009 and 2011. Representative MRSP (C22963), MSSA, and P. aeruginosa (26314) were used for testing the first set of B1 analogues.
MIC determination was performed by broth microdilution according to the Clinical and Laboratory Standard Institute (CLSI, M31-A3, 2008)[62]. In brief, each bacterial strain was diluted to concentration of 5 × 10^5 CFU/mL in Mueller Hinton broth II (MHB II) media (Oxoid) and added to a two-fold serial dilution of peptides and peptide-peptoid hybrids concentrations ranging from 1 to 64 µg/ml in 96-well plates (Nunc Internationals, Rochester, NY). The MICs were determined as a lowest concentration showing no visible growth after incubation for 18 hours at 37 °C. Experiments were performed in triplicates on two different days.

[3] = system: MRSP E104; experiment: High-throughput growth curves (BioScreen); assay type: cell-based, Staphylococcus pseudintermedius; conditions: 3 µg/ml; decrease of OD over time
Method: The effects of B1 on the growth of a reference MRSP strain (ST71, E104) were evaluated using BioScreen (Oy Growth Curves Ab LTd, Finland). A well characterized antimicrobial peptide, Nisin, was used as a positive control. […] The OD600 of each micro-culture was measured and recorded every 15 min after a 5 second pause of shaking in automatic mode. The recorded ODs were plotted against time to prepare the growth curves. The assay was performed with technical and biological replicates, and one representative result was presented.

[4] = system: DNA synthesis in MRSP E104; experiment: Macromolecule biosynthesis rate, DNA (3H-Thymidine); assay type: cell-based, Staphylococcus pseudintermedius; conditions: MRSP E104, 1.5 µg/mL, 20 min
Method: (§1) Macromolecule biosynthesis rate was measured in MRSP E104 following a protocol adapted from Ling et al.[65]. Briefly, E104 overnight culture was sub-cultured 1:100 in MHB II and grown up to OD 0.2 at 600 nm. Cells were pelleted down by centrifugation and resuspended in fresh medium followed by incubation for 20 min with B1 or nisin at 1.5 µg/ml and 1.25 µg/ml, respectively, and radiolabeled precursor: (50µCi) 3H-Thymidine (PerkinElmer) and (5µCi) 3H-glucosamine hydrochloride per ml for DNA and cell wall, respectively. A positive control without antimicrobial was maintained. After incubation, samples were precipitated with equal volume of cold 30% TCA (Sigma) on ice. Precipitates were filtered on a membrane filter and subsequently subjected to two washes of cold 15% TCA and two washes of cold water using vacuum manifold. Subsequently, filters were air dried overnight and then transferred to 10 ml scintillation vials. Finally, scintillation fluid (3 ml) was added to each vial and ^3H count was taken in Beckman Coulter LS6500 liquid scintillation counter for one minute. The radioactive counts of the control samples were considered to have 100% precursor incorporation and macromolecule synthesis. The percentage rates of the antimicrobial-exposed samples were calculated accordingly. Each experiment was performed with replicates and the average rates of incorporation were plotted.

[5] = system: cell wall synthesis in MRSP E104; experiment: Macromolecule biosynthesis rate, cell wall (3H-glucosamine); assay type: cell-based, Staphylococcus pseudintermedius; conditions: MRSP E104, 1.5 µg/mL, 20 min
Method: as §1

[6] = system: membrane potential of MRSP E104; experiment: DiSC3(5) fluorescence-based membrane potential study; assay type: cell-based, Staphylococcus pseudintermedius; conditions: MRSP E104, sub-inhibitory concentration 1.5 µg/mL
Method: Freshly sub-cultured E104 cells were labelled with 1 µM 3,3-Dipropylthiadicarbocyanine iodide [DiSC3(5)] (Sigma) in MHB II. The fluorescence spectra of labelled cells were plotted in the LS50B luminescence spectrometer (PerkinElmer) at excitation/emission wavelengths 546 nm/573 nm using time drive application of FLWINLAB software. After reading an initial stable emission spectra of DiSC3(5), labelled cells were treated with B1 or nisin or protonophore CCCP at 1, 1.5 and 1.25 µg/ml, respectively and the change of fluorescence over time was recorded. The increment of DiSC3(5) fluorescence upon addition of antimicrobials or CCCP (FUafter-treatment – FUbefore-treatment) was plotted. This experiment was performed twice and each time with two technical replicates.

[7] = system: MRSP E104; experiment: Flow cytometry (TO/PI) of antimicrobial-exposed cells; assay type: cell-based, Staphylococcus pseudintermedius; conditions: MRSP E104, lysis concentration (1x MIC), 3 µg/ml, 1 h
Method: Freshly grown cultures (OD 0.2 at 600 nm) of MRSP E104 were exposed to 3 µg/ml of B1 or 2.5 µg/ml of nisin for 1 h and diluted 1:10 in flow cytometry analysis buffer (PBS supplemented with 1 mM EDTA, 0.01% Tween 20 and filtered by 0.22 µm membrane). Diluted cells were stained with 420 nM thiazole orange (TO, Sigma) and 48 µM propidium iodide (PI, Sigma) and analysed using BD ACCURI C6 flow cytometer (BD Biosciences). Unstained cells were used as negative control. Finally, the differentially labelled bacterial populations in antimicrobial-exposed cultures were plotted under FL3(red)/FL1(green) axis using the instrument’s software and categorised into four different conditions: P1 (unstained), P2 (dead cells), P3 (injured cells) and P4 (live cells).

[8] = system: human red blood cells; parameters: method as in PMID 29534469; conditions: at 150 µM; cited from earlier work
[9] = system: Pronase; conditions: cited from earlier work
[10] = topical delivery from cream formulation; cited from earlier work
[11] = Precipitation in time-kill media; assay type: physicochemical; conditions: time-kill experiment against P. aeruginosa, MHB II
Method: Time kill assays were performed in triplicate, meaning that every value is the average of three different samplings. Time–kill kinetic assays were performed using P. aeruginosa (26314), MRSP E104 and/or MRSP C22963 to determine the cell killing activity of B1 and two of its most promising analogues (compounds 23 and 26) based on prior antimicrobial susceptibility testing. The method reported by Blondeau et al.[63] was followed with minor modifications. Briefly, the assay was performed in MHB II with concentrations corresponding to 0.5, 1, 2 and 4 times the MIC of the strain. After 0, 15, 30, 60, 120, 180 and 300 min of growth, 100 μL aliquots were collected and 10-fold serially diluted. Twenty μL of cell suspension from each dilution were spotted in triplicate on blood agar plates followed by 16–18 h incubation at 37 °C and determination of colony forming units (CFU).

## CCCCN(CC(=O)N[C@@H](CCCCN)C(=O)N(CC(=O)N(CC(=O)N(CC(N)=O)Cc1cccc2ccccc12)Cc1ccc(C)cc1)Cc1cccc2ccccc12)C(=O)[C@H](CCCCN)NC(=O)[C@@H](N)CCCCN [B1, Lys-Lys-(NBu)Gly-Lys-(N1-Nal)Gly-(N4-MeBn)Gly-(N1-Nal)Gly] (H-KK[NBuGly]K[N(1-naphthylmethyl)Gly][N(4-MeBn)Gly][N(1-naphthylmethyl)Gly]-NH2)
[1]
  Minimum Inhibitory Concentration MSSA (ATCC 29213): 8 to 16 µg/mL
[2]
  MICs against a panel of 50 P. aeruginosa isolates: 8 to 16 µg/mL
[3]
  growth curve effect on MRSP E104: cell lysis
[4]
  effect on DNA replication: without affecting DNA replication; also recorded: no effect on DNA replication
[5]
  reduction in cell wall synthesis: 20%
[6]
  membrane potential, DiSC3(5) fluorescence emission: significant membrane depolarization
[7]
  flow cytometry PI/TO staining: Cell death
[8]
  hemolytic activity: 32%
[9]
  degradation by protease mix Pronase: 38%
[10]
  skin penetration after administration: no skin penetration

## CCCC[C@@H](NC(=O)[C@H](CCCCN)NC(=O)[C@H](CCCCN)NC(=O)[C@@H](N)CCCCN)C(=O)N[C@H](Cc1cccc2ccccc12)C(=O)N[C@H](Cc1ccccc1)C(=O)N[C@H](Cc1cccc2ccccc12)C(N)=O [Compound 26, Lys-Lys-Lys-nle-(1-Nal)ala-phe-(1-Nal)ala] (H-KKK[dNle][d1Nal][dF][d1Nal]-NH2; N-terminus assumed)
[11]
  precipitation in the media: precipitated after 15 min
